From patent US7179920B2, “3-thia-4-arylquinolin-2-one derivatives” (Bristol-Myers Squibb Company, priority 2003, dated 2007)

Columns and labels:
[1] = tested on: cloned mammalian (mSlo or hSlo) BK (Maxi-K) channel; experiment: Assay for BK channel openers: two-electrode voltage clamp of BK-mediated outward current in Xenopus oocytes; assay type: cell-based; settings: voltage step to +140 mV
Source text: The experimental media (modified Barth's solution) consisted of millimolar (“mM”): NaCl (88), NaHCO3 (2.4), KCl (1.0), HEPES (10), MgSO4 (0.82), Ca(NO3)2 (0.33), CaCl2 (0.41); pH 7.5.

[2] = tested on: rabbit corpus cavernosum tissue; experiment: Rabbit corpus cavernosum strips: relaxation of phenylephrine-induced force; settings: Oryctolagus cuniculus; inhibition of phenylephrine (3 μM)-induced force as compared to vehicle control; read-out: % Inhibition of force (RCC strips)
Procedure: The ability of the compounds of the invention to relax rabbit corpus cavernosum tissue as a model for the treatment of erectile dysfunction is described as follows. New Zealand white rabbits (3.4–3.7 kg) were euthanized by sodium pentobarbital (100 mg/kg) overdose. The penis from each animal was rapidly removed and immersed in a cold oxygenated modified Krebs Henseleit bicarbonate buffer. The penis' outer tunica was removed and the corpus cavernosum smooth muscle obtained and cut into strips approximately 3–5 mm long. The strips were suspended in tissue baths containing physiological salt solution (see above), and allowed to equilibrate for at least one hour under resting tension of 1.0 gram. Isometric force was measured as described above. Tissue strips were stimulated with the α-agonist phenylephrine (3 μM) and allowed to reach a steady level of force prior to the addition of test compounds. The results are expressed as the percentage inhibition of phenylephrine-induced force as compared to vehicle control.

[3] = tested on: rat small intestine tissue; experiment: Rat small intestine (ileum) strips: inhibition of nifedipine-sensitive force; settings: integral of nifedipine-sensitive force, 30 min post-compound
Source text: The ability of the compounds of the invention to relax rat small intestine tissue as a model for the treatment of irritable bowel syndrome is described as follows. Male rats (Harlan, Sprague Dawley, 250–350 g) were sacrificed by decapitation. A portion of small intestine (ileum) was removed and the attached connective tissues and intestinal contents removed. The ileum was cut into segments of ≦1 cm in length. The segments were mounted longitudinally between fixed hooks in organ baths containing warm (37° C.) physiological salt solution (composition in mM: NaCl 118.4, KCl 4.7, KH2PO4 1.2, MgSO4 1.2, CaCl2 1.8, Glucose 10.1, NaHCO3 25; gassed with 95% O2/5% CO2, pH 7.4). A stable tension of ˜1.5 g was maintained in the tissue segments during the equilibration period of 45 minutes. Changes in muscle tension were measured with isometric force transducers (Grass, FT-03C) and recorded using AcqKnowledge data acquisition system (AcqKnowledge for MP100WS, Biopac Systems Inc., Goleta, Calif.). Compound or vehicle was added in the baths for 30 minutes. “Zero” active force was established at the end of the experiment using nifedipine (20 μM). The effects of compounds or vehicle on force was determined by measuring the integral of nifedipine-sensitive force (including resting tone and spontaneous contractions) pre- and 30 min post-compound (or vehicle) addition. Results are expressed as the percentage inhibition of force. DMSO vehicle inhibited force (integral) by −0.6±3.0% (n=25).

[4] = at 20 μM, percent increase over BK current in controls
[5] = at 1 μM, percent increase over BK current in controls

SMILES	% MaxiK opening [1, 4] [%]	melting point [°C]	inhibition [2] [%]	further results
O=c1[nH]c2ccc(C(F)(F)F)cc2c(-c2cc(Cl)ccc2O)c1SCCO [Example 10, 4-(5-Chloro-2-hydroxyphenyl)-3-(2-hydroxyethylsulfanyl)-6-trifluoromethyl-1H-quinolin-2-one]	348	278 to 279	43	
COc1ccc(Cl)cc1-c1c(SCC(O)CO)c(=O)[nH]c2ccc(C(F)(F)F)cc12 (centres unmarked) [Example 20, 4-(5-Chloro-2-methoxyphenyl)-3-(2,3-dihydroxypropylsulfanyl)-6-trifluoromethyl-1H-quinolin-2-one]	178	110 to 114		
CCNC(=O)NCCSc1c(-c2cc(Cl)ccc2O)c2cc(C(F)(F)F)ccc2[nH]c1=O [Example 7, 1-{2-[4-(5-Chloro-2-hydroxy-phenyl)-2-oxo-6-trifluoromethyl-1,2-dihydro-quinolin-3-ylsulfanyl]-ethyl}-3-ethyl-urea]				% MaxiK opening ([1]; marked ⋄⋄ (concentration footnote not given)): 160^⋄⋄ %
N#CCCCSc1c(-c2cc(Cl)ccc2O)c2cc(C(F)(F)F)ccc2[nH]c1=O [Example 13, 4-[4-(5-Chloro-2-hydroxyphenyl)-2-oxo-6-trifluoromethyl-1,2-dihydro-quinolin-3-ylsulfanyl]butyronitrile]	198	217		
COc1ccc(Cl)cc1-c1c(SCCNC(N)=O)c(=O)[nH]c2ccc(C(F)(F)F)cc12 [Example 4, 1-{2-[4-(5-Chloro-2-methoxy-phenyl)-2-oxo-6-trifluoromethyl-1,2-dihydro-quinolin-3-ylsulfanyl]-ethyl}urea]	140			
CNC(=O)NCCSc1c(-c2cc(Cl)ccc2O)c2cc(C(F)(F)F)ccc2[nH]c1=O [Example 6, 1-{2-[4-(5-Chloro-2-hydroxy-phenyl)-2-oxo-6-trifluoromethyl-1,2-dihydro-quinolin-3-ylsulfanyl]-ethyl}-3-methyl-urea]	176			
N#CCCSc1c(-c2cc(Cl)ccc2O)c2cc(C(F)(F)F)ccc2[nH]c1=O [Example 11, 3-[4-(5-Chloro-2-hydroxyphenyl)-2-oxo-6-trifluoromethyl-1,2-dihydro-quinolin-3-ylsulfanyl]propionitrile]	189	140		
COc1ccc(Cl)cc1-c1c(SCCO)c(=O)[nH]c2ccc(C(F)(F)F)cc12 [Example 16, 4-(5-Chloro-2-methoxyphenyl)-3-(2-hydroxyethylsulfanyl)-6-trifluoromethyl-1H-quinolin-2-one]	149	98 to 100		
COc1ccc(Cl)cc1-c1c(S)c(=O)[nH]c2ccc(C(F)(F)F)cc12 [Example 9, 4-(5-Chloro-2-methoxyphenyl)-3-mercapto-6-trifluoromethyl-1H-quinolin-2-one]		239 to 241		% MaxiK opening [1, 5]: 149^⋄ %
O=c1[nH]c2ccc(C(F)(F)F)cc2c(-c2cc(Cl)ccc2O)c1SCCCO [Example 14, 4-(5-Chloro-2-hydroxyphenyl)-3-(3-hydroxypropylsulfanyl)-6-trifluoromethyl-1H-quinolin-2-one]	242	178 to 180	23	
O=c1[nH]c2ccc(C(F)(F)F)cc2c(-c2cc(Cl)ccc2O)c1SC[C@H](O)CO [Example 19, (R)-4-(5-Chloro-2-hydroxyphenyl)-3-(2,3-dihydroxypropylsulfanyl)-6-trifluoromethyl-1H-quinolin-2-one]	256		41	
COCCSc1c(-c2cc(Cl)ccc2O)c2cc(C(F)(F)F)ccc2[nH]c1=O [Example 12, 4-(5-Chloro-2-hydroxyphenyl)-3-(2-methoxyethylsulfanyl)-6-trifluoromethyl-1H-quinolin-2-one]				% MaxiK opening [1, 5]: 208^⋄ %
O=c1[nH]c2ccc(C(F)(F)F)cc2c(-c2cc(Cl)ccc2O)c1S [Example 8, 4-(5-Chloro-2-hydroxyphenyl)-3-mercapto-6-trifluoromethyl-1H-quinolin-2-one]	197			
O=c1[nH]c2ccc(C(F)(F)F)cc2c(-c2cc(Cl)ccc2O)c1SCC(O)CO (racemic) [Example 17, (±)-4-(5-Chloro-2-hydroxyphenyl)-3-(2,3-dihydroxypropylsulfanyl)-6-trifluoromethyl-1H-quinolin-2-one]	246	178 to 180	31	% Inhibition of force (RSI strips) [3]: 6%
COc1ccc(Cl)cc1-c1c(SCC(=O)O)c(=O)[nH]c2ccc(C(F)(F)F)cc12 [Example 1]	155	235	14	
NC(=O)NCCSc1c(-c2cc(Cl)ccc2O)c2cc(C(F)(F)F)ccc2[nH]c1=O [Example 5, 1-{2-[4-(5-Chloro-2-hydroxy-phenyl)-2-oxo-6-trifluoromethyl-1,2-dihydro-quinolin-3-ylsulfanyl]-ethyl}urea]	165		65	% Inhibition of force (RSI strips) [3]: 21%
CCNC(=O)NCCSc1c(-c2cc(Cl)ccc2OC)c2cc(C(F)(F)F)ccc2[nH]c1=O [Example 3, 1-{2-[4-(5-Chloro-2-methoxy-phenyl)-2-oxo-6-trifluoromethyl-1,2-dihydro-quinolin-3-ylsulfanyl]-ethyl}-3-ethyl-urea]	123			% Inhibition of force (RSI strips) [3]: 17b %
COc1ccc(Cl)cc1-c1c(S/C=C/CO)c(=O)[nH]c2ccc(C(F)(F)F)cc12 [Example 21]		148 to 150		% MaxiK opening [1, 5]: 135^⋄ %
O=c1[nH]c2ccc(C(F)(F)F)cc2c(-c2cc(Cl)ccc2O)c1SC[C@@H](O)CO [Example 18, (S)-4-(5-Chloro-2-hydroxyphenyl)-3-(2,3-dihydroxypropylsulfanyl)-6-trifluoromethyl-1H-quinolin-2-one]	223		45	
COc1ccc(Cl)cc1-c1c(SCCCO)c(=O)[nH]c2ccc(C(F)(F)F)cc12 [Example 15, 4-(5-Chloro-2-methoxyphenyl)-3-(3-hydroxypropylsulfanyl)-6-trifluoromethyl-1H-quinolin-2-one]	140	211		
